Measurements as given in PubChem BioAssay (NCI).
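Tested at 5 concentrations; 48 h exposure; 96-well plates; endpoints linearly interpolated, else capped at highest concentration. The concentration for 50% growth inhibition is given as GI50. TGI is the concentration that stops growth completely.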

Key:
Experiment in all cases: NCI anticancer screen, dose series, 48 h
786-0 renal = system: 786-0 renal
CCRF-CEM leukemia = system: CCRF-CEM leukemia
DU-145 prostate = system: DU-145 prostate
HL-60(TB) leukemia = system: HL-60(TB) leukemia
HOP-92 NSCLC = system: HOP-92 NSCLC
M14 melanoma = system: M14 melanoma
NCI-H23 lung = system: NCI-H23 lung
OVCAR-3 ovarian = system: OVCAR-3 ovarian
SF-295 CNS = system: SF-295 CNS
SN12C renal = system: SN12C renal

| Compound | GI50 (786-0 renal) | TGI (786-0 renal) | GI50 (CCRF-CEM leukemia) | TGI (CCRF-CEM leukemia) | GI50 (DU-145 prostate) | TGI (DU-145 prostate) | GI50 (HL-60(TB) leukemia) | TGI (HL-60(TB) leukemia) | GI50 (HOP-92 NSCLC) | TGI (HOP-92 NSCLC) | GI50 (M14 melanoma) | TGI (M14 melanoma) | GI50 (NCI-H23 lung) | TGI (NCI-H23 lung) | GI50 (OVCAR-3 ovarian) | TGI (OVCAR-3 ovarian) | GI50 (SF-295 CNS) | TGI (SF-295 CNS) | GI50 (SN12C renal) | TGI (SN12C renal) |
| --- | --- | --- | --- | --- | --- | --- | --- | --- | --- | --- | --- | --- | --- | --- | --- | --- | --- | --- | --- | --- |
| CCn1c2ccccc2c2cc(/C=C(/C#N)C(N)=O)ccc21 | 10.6 µM | > 100 µM | 13.2 µM | > 100 µM | 13.8 µM | > 100 µM | 4.76 µM | > 67.3 µM | 16.9 µM | > 91.4 µM | 13.4 µM | > 83.6 µM | 16.3 µM | > 100 µM | 3.43 µM | 19.1 µM | 3.42 µM | 30 µM | 43.6 µM | > 100 µM |
| N/N=C1\CC(=O)NC(=O)N1 | – | > 100 µM | – | > 100 µM | – | > 100 µM | – | > 100 µM | – | > 100 µM | – | > 100 µM | – | > 100 µM | – | > 100 µM | – | > 100 µM | – | > 100 µM |
| CC(=O)Oc1ccccc1C(=O)/C=C/c1cccc([N+](=O)[O-])c1 | 1.83 µM | 3.6 µM | 3.06 µM | > 100 µM | 4.37 µM | 15.8 µM | 3.26 µM | 9.51 µM | 7.91 µM | 22.5 µM | 3.93 µM | 14 µM | 5.09 µM | 19.6 µM | 2.6 µM | 6.17 µM | 1.88 µM | 4.16 µM | 2.53 µM | 6.79 µM |
| CCN(Cc1ccc(Cl)s1)c1ccc(CO)c(Cl)c1 | 2.99 µM | 21.2 µM | 13.1 µM | > 81.1 µM | 12 µM | > 60.4 µM | 3.11 µM | 26.2 µM | 0.563 µM | 15.1 µM | 10.3 µM | 34.3 µM | 3.2 µM | 42.1 µM | 0.295 µM | 1.21 µM | 0.352 µM | 15.9 µM | 7.08 µM | 22.3 µM |
| Cn1cc(-c2nonc2-c2cn(C)c3ccccc23)c2ccccc21 | 1.63 µM | > 100 µM | 0.703 µM | > 100 µM | 1.27 µM | > 100 µM | 0.483 µM | 1.72 µM | 4.16 µM | > 100 µM | 0.469 µM | > 100 µM | 1.98 µM | > 100 µM | 0.402 µM | 3.42 µM | 0.42 µM | > 100 µM | 1.76 µM | > 100 µM |
| COc1ccc(/C=N/NC(=O)Cn2c(-c3ccc(S(C)(=O)=O)cc3)nc3cc(Cl)ccc32)cc1 | 1.66 µM | > 50 µM | 0.318 µM | > 50 µM | 1.95 µM | > 50 µM | 0.446 µM | 7.3 µM | 1.52 µM | > 50 µM | 0.505 µM | > 50 µM | 2.39 µM | > 50 µM | 0.367 µM | > 50 µM | 1.47 µM | > 50 µM | 2.59 µM | > 50 µM |
| COc1ccc2c(c1)OC1=C(C(=O)OC1)C2c1cc(OC)c2c(c1)OCO2 (configuration not stated) | 0.0506 µM | > 100 µM | 0.0378 µM | > 100 µM | 0.0364 µM | 0.459 µM | 0.0342 µM | – | 28.6 µM | > 100 µM | 0.0223 µM | 0.0552 µM | 0.0441 µM | > 100 µM | 0.0214 µM | 0.0458 µM | 0.0283 µM | > 100 µM | 0.102 µM | > 100 µM |
| COc1ccc(OC)c(Cn2cc3c(c2)-c2oncc2CC3)c1 | 5.49 µM | > 63.6 µM | 2.13 µM | > 26 µM | 3.74 µM | > 64.3 µM | 1.65 µM | 6.74 µM | 3.25 µM | 57.8 µM | 2.15 µM | 9.48 µM | 3.8 µM | > 90.2 µM | 2.29 µM | 5.98 µM | 2.43 µM | 11.1 µM | 5.97 µM | > 100 µM |
| CC(C)(C)c1ccc(C(=O)Nc2sc3c(c2C(N)=O)CCC(=O)C3)cc1 | 1.86 µM | 5.07 µM | 0.215 µM | 3.37 µM | 2.72 µM | 11.1 µM | 0.481 µM | 4.82 µM | 1.13 µM | 2.96 µM | 0.413 µM | 1.57 µM | 0.423 µM | 1.86 µM | 0.426 µM | 1.52 µM | 1.21 µM | 2.73 µM | 0.654 µM | 2.05 µM |
| CN(CC(N)=O)C(=O)N(CCCl)N=O | – | > 100 µM | – | > 100 µM | – | > 100 µM | – | > 100 µM | – | > 100 µM | – | > 100 µM | – | > 100 µM | – | > 100 µM | – | > 100 µM | – | > 100 µM |
| CC1(C)CCC[C@]2(C)[C@@H](C=O)C(C=O)=CC[C@@H]12 | – | > 100 µM | – | 80.1 µM | – | 50.3 µM | – | 36.5 µM | – | 53 µM | – | 33.7 µM | – | 69.5 µM | – | 28 µM | – | 75.1 µM | – | 39.9 µM |
| COc1ccc(C2[C@@H](Cl)C(=O)N2c2cc(OC)c(OC)c(OC)c2)cc1Cl (some centres not stated) | 0.0389 µM | 10.1 µM | 0.19 µM | 39.4 µM | 0.37 µM | > 100 µM | 0.175 µM | 0.463 µM | 2.29 µM | 85.9 µM | 0.0773 µM | 0.712 µM | 0.428 µM | > 100 µM | 0.12 µM | 0.576 µM | 0.0411 µM | 0.648 µM | 0.414 µM | > 100 µM |
| CC(C)(C)CN1CCn2c(nc3c(N)nccc32)S1 | 21 µM | > 100 µM | 10.2 µM | > 100 µM | 4.46 µM | > 100 µM | 4.77 µM | 25.7 µM | 96.5 µM | > 100 µM | 5.68 µM | 24.9 µM | 5.17 µM | 34 µM | 12.3 µM | 29.3 µM | 12 µM | > 100 µM | 6.55 µM | > 100 µM |
| CCN1C(=O)N(CC)C2C1NN=c1s/c(=C3\C(=O)N(CCc4ccccc4)c4ccccc43)c(=O)n12 (configuration not stated) | 1.04 µM | 13.5 µM | 2.58 µM | > 100 µM | 0.558 µM | 6.95 µM | 0.538 µM | 1.56 µM | 2.55 µM | 15.6 µM | 0.478 µM | 12.5 µM | 0.794 µM | 14.3 µM | 0.291 µM | 0.901 µM | 0.363 µM | 7.75 µM | 1.34 µM | – |
| O=C(O)COc1c(Cl)cc(Cl)c2cccnc12 | – | > 100 µM | – | > 100 µM | – | > 100 µM | – | > 100 µM | – | > 100 µM | – | > 100 µM | – | > 100 µM | – | > 100 µM | – | > 100 µM | – | > 100 µM |
| O=C(Nc1cccc(Nc2ncc(Br)c(NCCc3cnc[nH]3)n2)c1)N1CCCC1 | 9.36 µM | 32.6 µM | 0.58 µM | 29 µM | 7.08 µM | 36.5 µM | 3.47 µM | 24.2 µM | 0.932 µM | 7.93 µM | 6.23 µM | 21.8 µM | 2.98 µM | 21.3 µM | 4.62 µM | 24.3 µM | 3.72 µM | 20.8 µM | 2.88 µM | 33.6 µM |
| N#Cc1c(N)[nH]c2ccc(Sc3ccccc3)cc12 | – | 8.1 µM | – | 13.8 µM | – | 15.5 µM | – | 1.92 µM | – | 19.8 µM | – | 3.5 µM | – | 10.3 µM | – | 15.8 µM | – | 4.96 µM | – | 6.64 µM |
| CN(C)c1ccc(N=Nc2ccncc2)cc1 | – | > 100 µM | – | > 100 µM | – | > 100 µM | – | > 100 µM | – | 98.6 µM | – | > 100 µM | – | > 100 µM | – | > 100 µM | – | > 100 µM | – | > 100 µM |
| CC(C)=CCC/C(C)=C/CC/C(C)=C/CC/C=C(\C)CC/C=C(\C)CCC(=O)Nc1ccn(C2OC(CO)C(O)C2(F)F)c(=O)n1 (configuration not stated) | < 0.0157 µM | < 0.0341 µM | 0.0639 µM | 0.525 µM | 0.0455 µM | 3.23 µM | 0.0618 µM | 0.539 µM | 0.435 µM | 11.5 µM | 0.0519 µM | 1.2 µM | 0.0324 µM | 12.4 µM | – | 4.48 µM | 0.0329 µM | 0.154 µM | 0.326 µM | 13.1 µM |
| CN1CCC(n2cnc(-c3ccc(F)cc3)c2-c2ccnc(N)n2)CC1 | 11.6 µM | > 25 µM | 14.4 µM | > 25 µM | 10.7 µM | > 25 µM | > 25 µM | > 25 µM | 3.99 µM | 24 µM | 11.7 µM | > 25 µM | 10.6 µM | > 25 µM | 11 µM | > 25 µM | 9.36 µM | > 25 µM | 6.43 µM | > 25 µM |
| CSC(=S)N/N=C(\C)c1cccc(C)n1 | – | 28 µM | – | 0.102 µM | – | 12.8 µM | – | 3.07 µM | – | 13.9 µM | – | 1.6 µM | – | 13.9 µM | – | 1.99 µM | – | 24.8 µM | – | 21.9 µM |
